Tests used:
Format in all cases: cell-based
α1β3γ2L GABAARs [1] = molecular target: T1, α1β3γ2L GABAARs (Homo sapiens, UniProt P14867+P18507+P28472); assay: whole-cell patch clamp, inhibition of GABA-induced current; conditions: 100 μM compound, 1 μM GABA, 15 s pre-treatment, -50 mV, pH 7.4, 22-25 °C
T1 construct: gene GABRA1; full-length wild-type subunits co-transfected 1:1:1 (plasmid ratio) in HEK293T cells; EGFP from a separate EF1a promoter on the GABRG2 plasmid; with Gamma-aminobutyric acid receptor subunit gamma-2
T1 sequence (P14867 28-456): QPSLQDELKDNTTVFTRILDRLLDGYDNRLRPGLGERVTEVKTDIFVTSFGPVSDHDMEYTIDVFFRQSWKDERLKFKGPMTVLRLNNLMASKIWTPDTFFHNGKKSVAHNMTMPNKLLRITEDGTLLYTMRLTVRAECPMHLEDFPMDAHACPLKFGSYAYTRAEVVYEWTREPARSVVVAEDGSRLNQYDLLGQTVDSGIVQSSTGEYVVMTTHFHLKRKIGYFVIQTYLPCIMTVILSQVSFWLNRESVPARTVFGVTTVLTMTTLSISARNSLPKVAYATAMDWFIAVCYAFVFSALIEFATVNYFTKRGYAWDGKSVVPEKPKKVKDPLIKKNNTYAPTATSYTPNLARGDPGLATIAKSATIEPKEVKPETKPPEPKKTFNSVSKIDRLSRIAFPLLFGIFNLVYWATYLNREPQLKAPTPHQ
T1 sequence (P28472 26-473): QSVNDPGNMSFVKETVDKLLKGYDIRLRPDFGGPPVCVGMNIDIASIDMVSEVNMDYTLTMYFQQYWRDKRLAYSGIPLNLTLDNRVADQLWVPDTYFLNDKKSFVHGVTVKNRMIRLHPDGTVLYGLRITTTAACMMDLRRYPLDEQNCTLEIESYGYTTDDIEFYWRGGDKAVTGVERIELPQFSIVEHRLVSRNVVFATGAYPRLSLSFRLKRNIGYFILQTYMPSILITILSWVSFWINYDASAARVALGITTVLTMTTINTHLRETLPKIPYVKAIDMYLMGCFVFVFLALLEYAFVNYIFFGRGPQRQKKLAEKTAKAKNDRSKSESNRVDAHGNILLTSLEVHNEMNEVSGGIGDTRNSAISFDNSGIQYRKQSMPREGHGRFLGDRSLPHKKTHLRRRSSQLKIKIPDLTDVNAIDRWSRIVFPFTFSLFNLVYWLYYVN
T1 sequence (P18507 40-475): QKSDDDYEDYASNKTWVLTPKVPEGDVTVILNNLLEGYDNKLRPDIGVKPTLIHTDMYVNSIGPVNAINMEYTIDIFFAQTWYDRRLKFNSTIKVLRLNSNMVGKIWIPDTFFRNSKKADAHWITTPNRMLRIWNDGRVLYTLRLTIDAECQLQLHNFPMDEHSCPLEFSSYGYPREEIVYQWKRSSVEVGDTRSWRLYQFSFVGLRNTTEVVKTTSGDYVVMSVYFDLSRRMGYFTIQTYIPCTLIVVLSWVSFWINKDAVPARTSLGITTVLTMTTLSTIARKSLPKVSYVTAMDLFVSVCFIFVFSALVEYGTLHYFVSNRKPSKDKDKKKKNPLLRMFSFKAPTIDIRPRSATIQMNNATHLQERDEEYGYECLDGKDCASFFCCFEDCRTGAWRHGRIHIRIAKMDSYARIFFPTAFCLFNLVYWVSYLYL

α1β3γ2L GABAARs [2] = molecular target: T1, α1β3γ2L GABAARs; assay: whole-cell patch clamp, potentiation of GABA-induced current
α1β3γ2L GABAARs [3] = molecular target: T1, α1β3γ2L GABAARs; assay: whole-cell patch clamp, inhibition of GABA-induced current; conditions: -50 mV, pH 7.4, 22-25 °C
α1β3γ2L GABAARs [4] = molecular target: T1, α1β3γ2L GABAARs; assay: as above; conditions: -50 mV, pH 7.4, 22-25 °C; remark: listed apart in the source

COc1cc2c(cc1OC)C(=O)NCC2 [Corydaldine]
whole-cell patch clamp, inhibition of GABA-induced current (α1β3γ2L GABAARs [1]): kaempferol and corydaldine suppressed the GABA-induced current by more than half

CCOC1O[C@H](CO)[C@@H](O)[C@H](O)[C@H]1O (stereo partly shown) [Ethyl glucoside]
EC50 (α1β3γ2L GABAARs [2]): 37 ± 8.56 µM

O=c1c(O)c(-c2ccc(O)cc2)oc2cc(O)cc(O)c12 [Kaempferol]
whole-cell patch clamp, inhibition of GABA-induced current (α1β3γ2L GABAARs [1]): kaempferol and corydaldine suppressed the GABA-induced current by more than half

O=C1c2c(O)cc(O)cc2O[C@H](c2cc(O)c(O)c(O)c2)[C@H]1O [Dihydromyricetin]
I/I0 at 100 μM (α1β3γ2L GABAARs [3]): 0.63 ± 0.04

C=C1CC/C=C(\C)CC[C@@H]2[C@@H]1CC2(C)C [β-Caryophyllene]
EC50 (α1β3γ2L GABAARs [2]): 46.9 ± 6.33 µM

Cc1ccc([C@]2(C)CCCC2(C)C)cc1 [(+)-Cuparene]
EC50 (α1β3γ2L GABAARs [2]): 15.1 ± 5.94 µM

O=C(O)[C@H](O)Cc1ccc(O)c(O)c1 [Danshensu]
I/I0 at 300 μM (α1β3γ2L GABAARs [4]): 0.89 ± 0.02
